Consider two molecules from patent publication US20210299282A1, “Device for Collecting and Culturing Fish Embryos and Method for Evaluating Combined Toxicity of Thiamethoxam and Tetraconazole” (priority 2020, published 2021).

Structures are written as SMILES. ≈ marks a conversion by molar mass, not a printed value.

The nature of data set [1]: Toxicity test for single pesticide on zebrafish embryos (96 h semi-static exposure). In kind it is in vivo, Zebrafish (Danio rerio). To be noted: zebrafish, in vivo; after 96 hours of exposure; single pesticide; embryos exposed from 3 hpf; read-out: LC50 and 95% confidence limits for zebrafish embryos when used alone. As for the experimental part:
(§1) S1: The embryo culture component 3 is assembled; toxicity exposure is performed after 3 hours post-fertilization (3 hpf) of embryos; after collecting the zebrafish embryos for 3 hours, the abnormal and dead embryos are removed, and the normally divided embryos are picked out under an inverted microscope, and the selected embryos are loaded in into the culture well 34 in an amount of 10 embryos per well; after removing the water as much as possible, 10 mL of single pesticide solution with different concentrations are added to each well in the treatment group separately, and an equal volume of standard dilution water is added to the blank control group and the solvent control group, respectively. Three replicates are set for each treatment group, blank control group and solvent control group, and every 2 wells are served as one replicate, that is, 20 embryos are one replicate. Each test pesticide is set with 5 to 7 concentrations using serial dilution method with a geometrical ratio, and each concentration is set with three repeats.
(§2) S2: The semi-static method is used, that is, the medium in the wells are replaced with fresh pesticide solution every 24 hours, and the dead embryos are picked out in time. When the medium is replaced with the fresh pesticide solution, the top plate 32 is pulled up, the original culture medium flows through the leakage hole 35 into the cavity of the cavity plate 31, and then the original culture medium is poured out together. Then, the top plate 32 is mounted on the cavity plate 31, and the fresh pesticide solution is added to the culture well 34 loaded with embryos.
(§3) S3: After 96 hours of toxicity exposure, the embryo mortality and poisoning symptoms are recorded. Embryo death was characterized by egg coagulation, somite disruption, non-detachment of tail or lack of heartbeat; common symptoms of embryo poisoning include the following deformities: egg coagulation, pericardial edema, yolk sac edema, spine curvature, tail bending, and others (FIG. 5). The mortality M is calculated according to the formula (I),
(§4) In formula (I), D is the number of dead embryos and N is the total number of embryos. DPS statistical analysis software (version number: V15.10) is used to statistically analyze the mortality data of zebrafish embryos with the probabilistic value analysis method, and the 50% lethal concentration LC50 and 95% confidence limits of the fish embryos are calculated.

For a further data set, the system named is zebrafish embryos. Described as above. In kind it is in vivo, Zebrafish (Danio rerio). To be noted: single pesticide treatment group; 96 h exposure (tetraconazole: high concentration group). The protocol: as §1, §2, §3, §4

As usually defined, the LC50 is the concentration lethal to half of the exposed cells or organisms. As to `CN1COCN(Cc2cnc(Cl)s2)/C1=N\[N+](=O)[O-]` [thiamethoxam], the LC50 at 96 h in data set [1] was 246 mg/L (≈ 844 µM). Also, the “poisoning symptoms of zebrafish embryos” value in the data set on zebrafish embryos is “not obvious”.
In the case of `FC(F)C(F)(F)OCC(Cn1cncn1)c1ccc(Cl)cc1Cl` (stereo not shown) [tetraconazole], the median lethal concentration (LC50) at 96 h in data set [1] stood at 11 mg/L (≈ 29.5 µM). Besides, the “poisoning symptoms of zebrafish embryos” value with zebrafish embryos is “pericardial edema, yolk sac edema, spine curvature, tail bending, and others were observed”.
